In one assay the target is T1, Peptide deformylase (Escherichia coli, UniProt Q9JN24).
T1 sequence (Q9JN24 whole entry): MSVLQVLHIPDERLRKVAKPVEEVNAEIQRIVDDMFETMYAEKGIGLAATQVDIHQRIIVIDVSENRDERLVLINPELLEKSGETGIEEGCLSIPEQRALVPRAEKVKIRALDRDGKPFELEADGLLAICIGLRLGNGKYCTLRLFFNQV
Description: Inhibition of Escherichia coli PDF.

The next assay has as its system Glycine max. Description: Inhibition of soybean PDF using PDF/FDH coupled spectrophotometric assay.

Active and inactive are the calls of the source. The calls are words filed in the database; no cut-off is given here.

`CCOc1cc(/C=C2\SC(=S)N(CCCCCC(=O)O)C2=O)ccc1O` displayed a half-maximal inhibitory concentration (IC50) at Peptide deformylase above 30 µM. The same measure, in the same setting: the value for `O=C(O)CCCCCN1C(=O)/C(=C/c2ccc(-c3ccc(Cl)c(Cl)c3)o2)SC1=S` was above 30 µM; that for `O=C(O)CCCCCN1C(=O)/C(=C/c2ccc(F)cc2)SC1=S` was above 30 µM; that for `Cc1cc(/C=C2\SC(=S)N(CCCCCC(=O)O)C2=O)c(C)n1-c1ccccc1` was above 30 µM. As to `O=C(O)CCCCCN1C(=O)/C(=C/c2c[nH]c3ccccc23)SC1=S`, the IC50 against Peptide deformylase is above 30 µM. As to `COc1ccccc1/C=C1\SC(=S)N(CCCCCC(=O)O)C1=O`, the half-maximal inhibitory concentration (IC50) on Peptide deformylase was above 30 µM. Still for that read-out and setting: the value for `O=C(O)CCCCCN1C(=O)/C(=C/c2cn(-c3ccccc3)nc2-c2cccs2)SC1=S` was above 30 µM; that for `O=C(O)CCCCCN1C(=O)/C(=C/c2cn(-c3ccccc3)nc2-c2ccccc2)SC1=S` was above 30 µM; that for `Cc1nn(CCC#N)cc1/C=C1\SC(=S)N(CCCCCC(=O)O)C1=O` was above 30 µM.

In turn, `CC(/C=C1\SC(=S)N(CCCCCC(=O)O)C1=O)=C\c1ccccc1` had an IC50 on Peptide deformylase above 30 µM. Turning to `Cc1cc(/C=C2\SC(=S)N(CCCCCC(=O)O)C2=O)c(C)n1-c1ccc(Br)cc1`, the IC50 against Peptide deformylase was above 30 µM. In turn, `Cc1ccc(-c2nn(-c3ccccc3)cc2/C=C2\SC(=S)N(CCCCCC(=O)O)C2=O)o1` returned an IC50 on Peptide deformylase above 30 µM.

For `Cc1ccc(-c2nn(-c3ccccc3)cc2/C=C2\SC(=S)N(CC(=O)O)C2=O)cc1`, the result in the assay on Glycine max was inactive. The compound further yielded an IC50 against Peptide deformylase above 30 µM.

Take `Cc1nn(-c2ccccc2)c(Cl)c1/C=C1\SC(=S)N(CCCCCC(=O)O)C1=O`: the 50% inhibitory concentration (IC50) against Peptide deformylase is above 30 µM. Take `O=C(O)CCN1C(=O)/C(=C/c2cn(-c3ccccc3)nc2-c2ccccc2)SC1=S`: the result with Glycine max was inactive. The compound also had an IC50 at Peptide deformylase above 30 µM. Take `COC(=O)CCCCCN1C(=O)/C(=C/c2cc(C)n(-c3ccccc3)c2C)SC1=S`: the result in the assay on Glycine max was inactive. For `COc1ccc(/C=C2\SC(=S)N(CCCCCC(=O)O)C2=O)cc1Br`, the IC50 on Peptide deformylase was above 30 µM.

In general, IC50 refers to the point on the concentration scale where inhibition reaches its midpoint. The low end stands for inhibition by little substance, the high end for a need for much substance.

The values are drawn from ChEMBL document CHEMBL1149294, “A novel class of inhibitors of peptide deformylase discovered through high-throughput screening and virtual ligand screening” (J Med Chem, 2004).
